{
  "source": "patent US9457018B2",
  "about": "“Method for combating adverse effects arising from antipsychotic treatment” (Saniona A/S, priority 2008, dated 2016)",
  "assay": "Olanzapine-induced weight gain in a rat model of antipsychotic drug induced obesity (three weeks study)",
  "type": "in vivo, Female Sprague-Dawley (SPRD) rats",
  "conditions": "tesofensine 2.0 mg/kg s.c. co-treatment with olanzapine 2.0 mg/kg p.o. from day 15, for 7 days, female SPRD rats",
  "protocol": "Female Sprague-Dawley (SPRD) rats were placed on 10% fat kcal futter. The rats were tagged subcutaneously with a microship in the neck and placed in an automatized food intake monitoring system. […] Co-administration of vehicle or tesofensine continued for 7 days in total. Body weight and food intake was measured on a daily basis, and body weight gain and cumulative food intake was calculated. Data were evaluated using a two-way ANOVA with Bonferroni's post-hoc test (daily body weight gain and food intake) or a one-way ANOVA with Tukey's post-hoc test.",
  "data": [
    {"smiles": "CCOC[C@@H]1[C@@H](c2ccc(Cl)c(Cl)c2)C[C@@H]2CC[C@H]1N2C", "note": "[tesofensine, (1R,2R,3S,5S)-3-(3,4-dichlorophenyl)-2-(ethoxymethyl)-8-methyl-8-azabicyclo[3.2.1]octane]", "values": [
      {"measurement": "effect on hypophagic response to olanzapine (food intake)", "result": "completely prevented"},
      {"measurement": "effect on olanzapine-induced body weight gain", "result": "completely prevented"},
      {"measurement": "effect on hypophagic response to olanzapine (food intake)", "setting": "listed as Tesofensine", "result": "prevents"},
      {"measurement": "effect on olanzapine-induced body weight gain", "setting": "listed as Tesofensine", "result": "prevents"}
    ]}
  ]
}
